Test results as given in ChEMBL document CHEMBL3046747, “Assessment of species specificity of moulting accelerating compounds in Lepidoptera: comparison of activity between Bombyx mori and Spodoptera littoralis by in vitro reporter and in vivo toxicity assays” (Pest Manag Sci, 2010).

What was measured:
Spodoptera littoralis = test: Larvicidal activity against Spodoptera littoralis assessed as mortality applied topically after 1 week; type: functional
Ecdysone receptor [1] = target: T1, Ecdysone receptor (Bombyx mori, UniProt P49881); test: Agonist activity at ecdysone receptor in Bombyx mori Bm5 cells after 24 hr by luciferase reporter gene assay; type: cell-based; conditions: read-out: pEC50 (converted)
T1 sequence (P49881 whole entry): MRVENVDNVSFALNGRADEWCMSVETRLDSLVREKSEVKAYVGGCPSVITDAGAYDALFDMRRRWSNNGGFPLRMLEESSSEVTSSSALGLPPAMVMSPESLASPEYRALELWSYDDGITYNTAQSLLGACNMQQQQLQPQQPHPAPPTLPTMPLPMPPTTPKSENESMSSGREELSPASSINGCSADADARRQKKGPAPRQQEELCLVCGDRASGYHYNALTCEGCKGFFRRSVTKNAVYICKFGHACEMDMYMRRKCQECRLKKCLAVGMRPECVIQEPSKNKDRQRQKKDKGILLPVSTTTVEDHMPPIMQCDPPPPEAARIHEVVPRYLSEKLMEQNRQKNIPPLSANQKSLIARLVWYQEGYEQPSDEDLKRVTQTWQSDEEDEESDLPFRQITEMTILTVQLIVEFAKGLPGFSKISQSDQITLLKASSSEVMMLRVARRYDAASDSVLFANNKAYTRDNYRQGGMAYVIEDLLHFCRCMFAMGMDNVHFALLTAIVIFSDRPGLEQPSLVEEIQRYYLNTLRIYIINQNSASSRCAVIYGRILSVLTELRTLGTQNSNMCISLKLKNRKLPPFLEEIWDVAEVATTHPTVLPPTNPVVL

[2] = Ratio of LD50 for Spodoptera littoralis to LD50 for Bombyx mori; type: functional
[3] = target: T2, Ecdysone receptor (Spodoptera littoralis) (UniProt E3UJZ5); test: Agonist activity at ecdysone receptor in Spodoptera littoralis Sl2 cells after 24 hr by luciferase reporter gene assay relative to tebufenozide; type: cell-based
T2 sequence (whole entry): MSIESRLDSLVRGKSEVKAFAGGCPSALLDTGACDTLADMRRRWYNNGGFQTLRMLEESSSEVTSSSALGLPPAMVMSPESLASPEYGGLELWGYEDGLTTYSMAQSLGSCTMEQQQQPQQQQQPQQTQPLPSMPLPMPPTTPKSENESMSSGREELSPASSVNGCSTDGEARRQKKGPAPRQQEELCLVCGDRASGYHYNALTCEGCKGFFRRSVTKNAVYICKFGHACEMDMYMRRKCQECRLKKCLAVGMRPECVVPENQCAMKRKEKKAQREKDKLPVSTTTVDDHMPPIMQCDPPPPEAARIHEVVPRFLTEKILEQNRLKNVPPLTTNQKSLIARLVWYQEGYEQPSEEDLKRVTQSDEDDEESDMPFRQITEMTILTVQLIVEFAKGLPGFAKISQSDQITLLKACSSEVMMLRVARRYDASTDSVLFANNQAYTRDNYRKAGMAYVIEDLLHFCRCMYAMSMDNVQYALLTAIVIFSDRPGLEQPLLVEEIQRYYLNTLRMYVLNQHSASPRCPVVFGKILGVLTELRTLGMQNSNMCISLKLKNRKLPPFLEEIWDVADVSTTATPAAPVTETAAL

Ecdysone receptor [4] = target: T3, Ecdysone receptor (Spodoptera littoralis, UniProt E3UJZ5); test: Agonist activity at ecdysone receptor in Spodoptera littoralis Sl2 cells after 24 hr by luciferase reporter gene assay; type: cell-based; conditions: read-out: pEC50 (converted)
T3 sequence (E3UJZ5 whole entry): T2 sequence (whole entry)

[5] = target: T4, Ecdysone receptor (Bombyx mori) (UniProt P49881); test: Agonist activity at ecdysone receptor in Bombyx mori Bm5 cells after 24 hr by luciferase reporter gene assay relative to tebufenozide; type: cell-based
T4 sequence (whole entry): T1 sequence (P49881 whole entry)

[6] = Selectivity ratio of EC50 for ecdysone receptor in Bombyx mori Bm5 cells to EC50 for ecdysone receptor in Spodoptera littoralis Sl2 cells; type: cell-based
Bombyx mori = test: Larvicidal activity against Bombyx mori assessed as mortality applied topically after 1 week; type: functional

SMILES | pLD50 (Spodoptera littoralis) | EC50 (Ecdysone receptor [1]) [nM] | Ratio [2] | Efficacy [3] [%] | EC50 (Ecdysone receptor [4]) [nM] | Efficacy [5] [%] | Ratio EC50 [6] | pLD50 (Bombyx mori)
Cc1cc(C)c(Cl)c(C(=O)N(NC(=O)c2ccc3c(c2C)CCCO3)C(C)(C)C)c1 | <4.36 | 33.1 | > 4.47 | 114 | 67.6 | 95 | 0.49 | 5.01
CC(C)(C)N(NC(=O)c1ccccc1F)C(=O)c1ccccc1Cl | <4.7 | 145 | > 468 | 105 | 288 | 93 | 0.5 | 7.37
CC(C)(C)N(NC(=O)c1ccc(Cl)cc1)C(=O)c1ccccc1 [HALOFENOZIDE] | 5.43 | 77.6 | 12.3 | 107 | 457 | 95 | 0.17 | 6.52
Cc1cc(C)c(Cl)c(C(=O)N(NC(=O)c2ccccc2)C(C)(C)C)c1 |  | 1170 |  | 87 | 1740 | 92 | 0.68 | 
CC(C)(C)N(NC(=O)c1cccc(Cl)c1)C(=O)c1ccccc1Cl | <5.44 | 309 | > 2.4 | 75 | 1700 | 119 | 0.18 | 5.82
CC(C)c1ccc(C(=O)NN(C(=O)c2ccccc2Cl)C(C)(C)C)cc1 |  | 6.61 |  | 95 | 17.4 | 116 | 0.38 | 
CCOc1ccccc1C(=O)N(NC(=O)c1ccc(CC)cc1)C(C)(C)C |  | 2880 |  | 89 | 6920 | 92 | 0.42 | 
CCc1ccc(C(=O)NN(C(=O)c2cc(C)cc(C)c2Cl)C(C)(C)C)cc1 | <4.41 | 115 | > 3.39 | 83 | 339 | 85 | 0.34 | 4.94
CCCCCc1ccc(C(=O)NN(C(=O)c2ccccc2Cl)C(C)(C)C)cc1 |  | 427 |  | 86 | 324 | 97 | 1.32 | 
Cc1ccc(C(=O)NN(C(=O)c2cc(C)cc(C)c2Cl)C(C)(C)C)cc1 |  | 302 |  | 85 | 1350 | 108 | 0.22 | 
CCOc1ccccc1C(=O)N(NC(=O)c1ccc(Cl)cc1)C(C)(C)C |  | 7760 |  | 80 | 9550 | 74 | 0.81 | 
CCCc1ccc(C(=O)NN(C(=O)c2ccccc2Cl)C(C)(C)C)cc1 |  | 30.9 |  | 75 | 74.1 | 107 | 0.42 | 
Cc1cc(C)cc(C(=O)N(NC(=O)c2ccc3c(c2C)CCCO3)C(C)(C)C)c1 [CHROMAFENOZIDE] | 7.53 | 1 | 1.12 | 103 | 2.63 | 98 | 0.38 | 7.55
Cc1cc(C)cc(C(=O)N(NC(=O)c2ccccc2)C(C)(C)C)c1 | <5.49 | 200 | > 3.09 | 75 | 501 | 118 | 0.39 | 5.98
CCc1ccc(C(=O)NC(CC)(CC)C(=O)c2cc(C)cc(C)c2)cc1 |  | 1260 |  | 96 | 4270 | 95 | 0.29 | 
Cc1cc(C)c(Cl)c(C(=O)N(NC(=O)c2ccc(Cl)cc2)C(C)(C)C)c1 |  | 447 |  | 101 | 1070 | 93 | 0.42 | 

SMILES | pLD50 (Spodoptera littoralis) | EC50 (Ecdysone receptor [1]) [nM] | Ratio [2] | Efficacy [3] [%] | EC50 (Ecdysone receptor [4]) [nM] | Efficacy [5] [%] | Ratio EC50 [6] | pLD50 (Bombyx mori)
CC(C)(C)N(NC(=O)c1ccccc1)C(=O)c1ccccc1 [RH-5849] | 4.75 | 437 | 17.8 | 91 | 1290 | 87 | 0.34 | 5.55
Cc1cc(C)cc(C(=O)C2(NC(=O)c3ccc4c(c3C)CCCO4)CCCCC2)c1 | <5.39 | 4.37 | > 13.8 | 106 | 3.39 | 102 | 1.29 | 6.53
Cc1c(C(=O)NN(C(=O)c2ccccc2Cl)C(C)(C)C)ccc2c1CCCO2 | <4.4 | 2.88 | > 355 | 108 | 5.37 | 106 | 0.53 | 6.95
CCOc1ccccc1C(=O)N(NC(=O)c1ccc(OC)cc1)C(C)(C)C |  | 19100 |  | 45 | 21900 | 59 | 0.87 | 
CCc1ccc(C(=O)NC2(C(=O)c3cc(C)cc(C)c3)CCCCC2)cc1 | <4.44 | 77.6 | > 23.4 | 101 | 120 | 112 | 0.65 | 6.08
CC(C)(C)N(NC(=O)c1ccccc1)C(=O)c1ccccc1C(F)(F)F |  | 871 |  | 98 | 794 | 92 | 1.1 | 
CCC(CC)(NC(=O)c1ccc2c(c1C)CCCO2)C(=O)c1cc(C)cc(C)c1 |  | 191 |  | 104 | 166 | 113 | 1.15 | 
CCc1ccc(C(=O)NN(C(=O)c2cc(C)cc(C)c2)C(C)(C)C)cc1 [TEBUFENOZIDE] | 6.58 | 1.12 | 10.5 | 100 | 2.19 | 100 | 0.51 | 7.6
CC(C)(C)N(NC(=O)c1ccccc1)C(=O)c1ccc(Cl)c(Cl)c1Cl | <5.4 | 3630 |  | 95 | 5250 | 79 | 0.69 | <5.4
COc1cccc(C(=O)NN(C(=O)c2cc(C)cc(C)c2)C(C)(C)C)c1C [METHOXYFENOZIDE] | 7.68 | 3.39 | 3.16 | 100 | 6.03 | 103 | 0.56 | 8.18
CCCCc1ccc(C(=O)NN(C(=O)c2ccccc2OCC)C(C)(C)C)cc1 |  | 16200 |  | 41 | 7760 | 20 | 2.09 | 
CCCCCc1ccc(C(=O)NN(C(=O)c2cc(C)cc(C)c2Cl)C(C)(C)C)cc1 |  | 1780 |  | 76 | 3550 | 45 | 0.5 | 
Cc1cc(C)cc(C(=O)N(NC(=O)c2ccc(C(C)(C)C)cc2)C(C)(C)C)c1 | 4.72 | 7.08 | > 295 | 69 | 7.08 | 88 | 1.01 | 7.19
Cc1ccccc1C(=O)N(NC(=O)c1cccc(F)c1)C(C)(C)C |  | 324 |  | 120 | 457 | 92 | 0.7 | 
CCCCc1ccc(C(=O)NN(C(=O)c2cc(C)cc(C)c2Cl)C(C)(C)C)cc1 |  | 1150 |  | 69 | 1120 | 45 | 1.02 | 
COc1ccc(C(=O)NN(C(=O)c2cc(C)cc(C)c2Cl)C(C)(C)C)cc1 |  | 1230 |  | 105 | 2040 | 100 | 0.6 | 
